According to PubChem BioAssay AID2060623 (Molecular Pharmacology Branch, DTP, NCI, 2025):

System: 227483-062-R1-J1-PDC complex spheroids with HUVEC/MSC, viability
Experiment: Anticancer human tumor 227483-062-R1-J1-PDC patient-derived pancreatic carcinoma cell line growth inhibition [CLK]
Conditions: for IC50: curve of first compound; for viability, T/C: stronger effect = lower value
How it was run: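 Patient-derived tumor cells grown as complex spheroids with HUVEC endothelial cells and mesenchymal stem cells, treated with drug combinations. Concentrations descend in half-log steps from near clinical Cmax, or from 10 microM if Cmax unknown.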

[1] = second compound 0.0316 µM, first compound 0.0316 µM
[2] = second compound 0.0316 µM, first compound 0.1 µM
[3] = second compound 0.1 µM, first compound 0.0316 µM
[4] = second compound 0.1 µM, first compound 0.1 µM
[5] = second compound 0.316 µM, first compound 0.0316 µM
[6] = second compound 0.316 µM, first compound 0.1 µM
[7] = second compound 1 µM, first compound 0.0316 µM
[8] = second compound 1 µM, first compound 0.1 µM
[9] = second compound 3.16 µM, first compound 0.0316 µM
[10] = second compound 3.16 µM, first compound 0.1 µM
[11] = second compound 10 µM, first compound 0.0316 µM
[12] = second compound 10 µM, first compound 0.1 µM
[13] = second compound 0.0316 µM, first compound 0.316 µM
[14] = second compound 0.0316 µM, first compound 1 µM
[15] = second compound 0.0316 µM, first compound 3.16 µM
[16] = second compound 0.0316 µM, first compound 10 µM
[17] = second compound 0.1 µM, first compound 0.316 µM
[18] = second compound 0.1 µM, first compound 1 µM
[19] = second compound 0.1 µM, first compound 3.16 µM
[20] = second compound 0.1 µM, first compound 10 µM
[21] = second compound 0.316 µM, first compound 0.316 µM
[22] = second compound 0.316 µM, first compound 1 µM
[23] = second compound 0.316 µM, first compound 3.16 µM
[24] = second compound 0.316 µM, first compound 10 µM
[25] = second compound 1 µM, first compound 0.316 µM
[26] = second compound 1 µM, first compound 1 µM
[27] = second compound 1 µM, first compound 3.16 µM
[28] = second compound 1 µM, first compound 10 µM
[29] = second compound 3.16 µM, first compound 0.316 µM
[30] = second compound 3.16 µM, first compound 1 µM
[31] = second compound 3.16 µM, first compound 3.16 µM
[32] = second compound 3.16 µM, first compound 10 µM
[33] = second compound 10 µM, first compound 0.316 µM
[34] = second compound 10 µM, first compound 1 µM
[35] = second compound 10 µM, first compound 3.16 µM
[36] = second compound 10 µM, first compound 10 µM
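Also: spheroids exposed to compounds for seven days before readout.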
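For viability, T/C in this document: percent of DMSO vehicle control luminescence as 100% viability.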

Structure (SMILES): Cn1ncnc1[C@H]1c2n[nH]c(=O)c3cc(F)cc(c23)N[C@@H]1c1ccc(F)cc1 + CNC(=O)c1ccc(Nc2nc(OC3CCCC3)c3c(-c4ccc5nc(C)oc5c4)c[nH]c3n2)c(OC)c1
- IC50 (second compound 0.0316 µM): > 100 nM
- IC50 (second compound 0.1 µM): > 100 nM
- IC50 (second compound 0.316 µM): > 100 nM
- IC50 (second compound 1 µM): > 100 nM
- IC50 (second compound 3.16 µM): < 0.316 nM
- IC50 (second compound 10 µM): < 0.316 nM
- viability, T/C (second compound 0.0316 µM, first compound 0.000316 µM): 87.5%
- viability, T/C (second compound 0.0316 µM, first compound 0.001 µM): 111%
- viability, T/C (second compound 0.0316 µM, first compound 0.00316 µM): 118%
- viability, T/C (second compound 0.0316 µM, first compound 0.01 µM): 100%
- viability, T/C [1]: 89.1%
- viability, T/C [2]: 97.1%
- viability, T/C (second compound 0.1 µM, first compound 0.000316 µM): 111%
- viability, T/C (second compound 0.1 µM, first compound 0.001 µM): 120%
- viability, T/C (second compound 0.1 µM, first compound 0.00316 µM): 106%
- viability, T/C (second compound 0.1 µM, first compound 0.01 µM): 97.4%
- viability, T/C [3]: 97%
- viability, T/C [4]: 109%
- viability, T/C (second compound 0.316 µM, first compound 0.000316 µM): 105%
- viability, T/C (second compound 0.316 µM, first compound 0.001 µM): 84.2%
- viability, T/C (second compound 0.316 µM, first compound 0.00316 µM): 78.5%
- viability, T/C (second compound 0.316 µM, first compound 0.01 µM): 94.4%
- viability, T/C [5]: 94.4%
- viability, T/C [6]: 70.4%
- viability, T/C (second compound 1 µM, first compound 0.000316 µM): 69%
- viability, T/C (second compound 1 µM, first compound 0.001 µM): 59.7%
- viability, T/C (second compound 1 µM, first compound 0.00316 µM): 59.8%
- viability, T/C (second compound 1 µM, first compound 0.01 µM): 67.4%
- viability, T/C [7]: 71.9%
- viability, T/C [8]: 58%
- viability, T/C (second compound 3.16 µM, first compound 0.000316 µM): 40.7%
- viability, T/C (second compound 3.16 µM, first compound 0.001 µM): 44.9%
- viability, T/C (second compound 3.16 µM, first compound 0.00316 µM): 51.2%
- viability, T/C (second compound 3.16 µM, first compound 0.01 µM): 48.5%
- viability, T/C [9]: 49.4%
- viability, T/C [10]: 41.3%
- viability, T/C (second compound 10 µM, first compound 0.000316 µM): 40.5%
- viability, T/C (second compound 10 µM, first compound 0.001 µM): 39.3%
- viability, T/C (second compound 10 µM, first compound 0.00316 µM): 36.5%
- viability, T/C (second compound 10 µM, first compound 0.01 µM): 34.2%
- viability, T/C [11]: 41%
- viability, T/C [12]: 29.3%

Structure (SMILES): Nc1ccn(C2OC(CO)C(O)C2(F)F)c(=O)n1 (stereo unspecified) + CNC(=O)c1ccc(Nc2nc(OC3CCCC3)c3c(-c4ccc5nc(C)oc5c4)c[nH]c3n2)c(OC)c1
- IC50 (second compound 0.0316 µM): 67.5 nM
- IC50 (second compound 0.1 µM): 78.5 nM
- IC50 (second compound 0.316 µM): 52.4 nM
- IC50 (second compound 1 µM): < 31.6 nM
- IC50 (second compound 3.16 µM): < 31.6 nM
- IC50 (second compound 10 µM): < 31.6 nM
- viability, T/C [1]: 77.5%
- viability, T/C [2]: 34.3%
- viability, T/C [13]: 34.2%
- viability, T/C [14]: 34.4%
- viability, T/C [15]: 28.2%
- viability, T/C [16]: 20%
- viability, T/C [3]: 93.3%
- viability, T/C [4]: 36.2%
- viability, T/C [17]: 35.6%
- viability, T/C [18]: 34.2%
- viability, T/C [19]: 26.8%
- viability, T/C [20]: 19.3%
- viability, T/C [5]: 62.2%
- viability, T/C [6]: 32.6%
- viability, T/C [21]: 27.1%
- viability, T/C [22]: 28.9%
- viability, T/C [23]: 21.8%
- viability, T/C [24]: 15.8%
- viability, T/C [7]: 49.2%
- viability, T/C [8]: 28.6%
- viability, T/C [25]: 20.2%
- viability, T/C [26]: 21.1%
- viability, T/C [27]: 15.5%
- viability, T/C [28]: 12.6%
- viability, T/C [9]: 29%
- viability, T/C [10]: 20.8%
- viability, T/C [29]: 19.6%
- viability, T/C [30]: 15.9%
- viability, T/C [31]: 13.3%
- viability, T/C [32]: 11%
- viability, T/C [11]: 23.6%
- viability, T/C [12]: 22%
- viability, T/C [33]: 16.7%
- viability, T/C [34]: 15.2%
- viability, T/C [35]: 13.6%
- viability, T/C [36]: 9.42%

Structure (SMILES): O=C(c1cc(Cc2n[nH]c(=O)c3ccccc23)ccc1F)N1CCN(C(=O)C2CC2)CC1 + CNC(=O)c1ccc(Nc2nc(OC3CCCC3)c3c(-c4ccc5nc(C)oc5c4)c[nH]c3n2)c(OC)c1
- IC50 (second compound 0.0316 µM): > 10000 nM
- IC50 (second compound 0.1 µM): > 10000 nM
- IC50 (second compound 0.316 µM): > 10000 nM
- IC50 (second compound 1 µM): > 10000 nM
- IC50 (second compound 3.16 µM): 44.9 nM
- IC50 (second compound 10 µM): < 31.6 nM
- viability, T/C [1]: 86.9%
- viability, T/C [2]: 84.9%
- viability, T/C [13]: 119%
- viability, T/C [14]: 93.1%
- viability, T/C [15]: 100%
- viability, T/C [16]: 98.4%
- viability, T/C [3]: 86.1%
- viability, T/C [4]: 117%
- viability, T/C [17]: 89.3%
- viability, T/C [18]: 89.5%
- viability, T/C [19]: 91.5%
- viability, T/C [20]: 91.3%
- viability, T/C [5]: 86.8%
- viability, T/C [6]: 92.9%
- viability, T/C [21]: 78.5%
- viability, T/C [22]: 89.3%
- viability, T/C [23]: 95.5%
- viability, T/C [24]: 99%
- viability, T/C [7]: 63.3%
- viability, T/C [8]: 60.9%
- viability, T/C [25]: 65.4%
- viability, T/C [26]: 61.1%
- viability, T/C [27]: 80.1%
- viability, T/C [28]: 66.3%
- viability, T/C [9]: 50.9%
- viability, T/C [10]: 54.5%
- viability, T/C [29]: 40.5%
- viability, T/C [30]: 48.9%
- viability, T/C [31]: 50.3%
- viability, T/C [32]: 47.7%
- viability, T/C [11]: 37%
- viability, T/C [12]: 34%
- viability, T/C [33]: 35.3%
- viability, T/C [34]: 42.1%
- viability, T/C [35]: 42.3%
- viability, T/C [36]: 39%
